In publication PMC5218480 (PLoS ONE, 2017):

Test system: MV-4-11 cells
Assay: Gene expression microarray analysis (Affymetrix PrimeView) and GSEA
Format: cell-based, human
Set-up: RFU PODN (11730768_x_at) / Fold change /veh PODN (11730768_x_at) / RFU LINC00158 (11744669_a_at) / Fold change /veh LINC00158 (11744669_a_at) / RFU DUSP10 (11751237_a_at) / Fold change /veh DUSP10 (11751237_a_at) / RFU ID3 (11757404_x_at) / Fold change /veh ID3 (11757404_x_at) / RFU PLEKHG5 (11737974_s_at) / Fold change /veh PLEKHG5 (11737974_s_at) / RFU LRRC4B (11730491_at) / Fold change /veh LRRC4B (11730491_at) / RFU GIMAP4 (11747438_a_at) / Fold change /veh GIMAP4 (11747438_a_at) / RFU KRT8 (11758183_x_at) / Fold change /veh KRT8 (11758183_x_at) / RFU CNN1 (11734310_a_at) / Fold change /veh CNN1 (11734310_a_at) / RFU VPS37D (11726825_at) / Fold change /veh VPS37D (11726825_at) / RFU C10orf10 (11716522_x_at) / Fold change /veh C10orf10 (11716522_x_at) / RFU KIR2DL2 /// KIR2DL4 /// KIR2DL5A /// KIR2DL5B /// KIR2DS1 /// KIR2DS2 /// KIR2DS3 /// KIR2DS4 /// KIR3DL3 /// KIR3DL3 /// KIR3DS1 (11738374_at) / Fold change /veh KIR2DL2 /// KIR2DL4 /// KIR2DL5A /// KIR2DL5B /// KIR2DS1 /// KIR2DS2 /// KIR2DS3 /// KIR2DS4 /// KIR3DL3 /// KIR3DL3 /// KIR3DS1 (11738374_at) / RFU C1QL1 (11718748_at) / Fold change /veh C1QL1 (11718748_at) / RFU TMPRSS4 (11747572_a_at) / Fold change /veh TMPRSS4 (11747572_a_at) / RFU HAMP (11756126_x_at) / Fold change /veh HAMP (11756126_x_at) / RFU RNFT2 (11725882_a_at) / Fold change /veh RNFT2 (11725882_a_at) / RFU NR4A2 (11747474_a_at) / Fold change /veh NR4A2 (11747474_a_at) / RFU ABCC12 (11746883_a_at) / Fold change /veh ABCC12 (11746883_a_at) / RFU TMEM136 (11760407_x_at) / Fold change /veh TMEM136 (11760407_x_at) / RFU CLDN22 /// WWC2 (11732394_at) / Fold change /veh CLDN22 /// WWC2 (11732394_at) / RFU HLA-DPB1 (11760878_x_at) / Fold change /veh HLA-DPB1 (11760878_x_at) / RFU SPINT1 (11716480_a_at) / Fold change /veh SPINT1 (11716480_a_at) / RFU GAP43 (11754022_s_at) / Fold change /veh GAP43 (11754022_s_at) / RFU A4GNT (11735810_at) / Fold change /veh A4GNT (11735810_at) / RFU PRB3 (11715151_x_at) / Fold change /veh PRB3 (11715151_x_at) / RFU TUBB4B (11761932_at) / Fold change /veh TUBB4B (11761932_at) / RFU CAPN14 (11732068_a_at) / Fold change /veh CAPN14 (11732068_a_at) / RFU TMCC2 (11721928_a_at) / Fold change /veh TMCC2 (11721928_a_at) / RFU IRGQ (11745062_a_at) / Fold change /veh IRGQ (11745062_a_at) / RFU FAM174B (11720279_a_at) / Fold change /veh FAM174B (11720279_a_at) / RFU TMPRSS4 (11748680_a_at) / Fold change /veh TMPRSS4 (11748680_a_at) / RFU FAM212B (11763350_a_at) / Fold change /veh FAM212B (11763350_a_at) / RFU PLEKHG5 (11743358_a_at) / Fold change /veh PLEKHG5 (11743358_a_at) / RFU ZSCAN30 (11745921_a_at) / Fold change /veh ZSCAN30 (11745921_a_at) / RFU CMKLR1 (11741424_a_at) / Fold change /veh CMKLR1 (11741424_a_at) / RFU LOC101060620 /// MAPK8IP1 (11723275_at) / Fold change /veh LOC101060620 /// MAPK8IP1 (11723275_at) / RFU SPTSSB (11747773_x_at) / Fold change /veh SPTSSB (11747773_x_at) / RFU PRSS12 (11739890_at) / Fold change /veh PRSS12 (11739890_at) / RFU BIN1 (11741810_x_at) / Fold change /veh BIN1 (11741810_x_at) / RFU WNT11 (11732464_a_at) / Fold change /veh WNT11 (11732464_a_at) / RFU C10orf10 (11716521_a_at) / Fold change /veh C10orf10 (11716521_a_at) / RFU C5orf56 (11738089_at) / Fold change /veh C5orf56 (11738089_at) / RFU CYB561 (11721691_x_at) / Fold change /veh CYB561 (11721691_x_at) / RFU ANKRD19P (11752326_a_at) / Fold change /veh ANKRD19P (11752326_a_at) / RFU OR2T12 /// OR2T33 /// OR2T8 (11738714_s_at) / Fold change /veh OR2T12 /// OR2T33 /// OR2T8 (11738714_s_at) / RFU VCAN (11748164_a_at) / Fold change /veh VCAN (11748164_a_at) / RFU JSRP1 (11732532_at) / Fold change /veh JSRP1 (11732532_at) / RFU KRTAP10-11 (11738290_x_at) / Fold change /veh KRTAP10-11 (11738290_x_at) / RFU MYO3A (11730013_a_at) / Fold change /veh MYO3A (11730013_a_at) / RFU EBF3 (11725865_a_at) / Fold change /veh EBF3 (11725865_a_at) / RFU CAMK2N1 (11719241_x_at) / Fold change /veh CAMK2N1 (11719241_x_at) / RFU C5orf56 (11738088_a_at) / Fold change /veh C5orf56 (11738088_a_at) / RFU OLFML3 (11715873_a_at) / Fold change /veh OLFML3 (11715873_a_at) / RFU LOC100653217 /// NTM (11731650_a_at) / Fold change /veh LOC100653217 /// NTM (11731650_a_at) / RFU MAPK11 (11762145_a_at) / Fold change /veh MAPK11 (11762145_a_at) / RFU FIZ1 (11724087_x_at) / Fold change /veh FIZ1 (11724087_x_at) / RFU OASL (11726364_x_at) / Fold change /veh OASL (11726364_x_at) / RFU SOX15 (11748057_x_at) / Fold change /veh SOX15 (11748057_x_at) / RFU CD79A (11719716_a_at) / Fold change /veh CD79A (11719716_a_at) / RFU HIST1H1D (11736915_at) / Fold change /veh HIST1H1D (11736915_at) / RFU CASKIN2 (11723855_a_at) / Fold change /veh CASKIN2 (11723855_a_at) / RFU LOC730098 (11760151_x_at) / Fold change /veh LOC730098 (11760151_x_at) / RFU OR4N2 (11742367_at) / Fold change /veh OR4N2 (11742367_at) / RFU PRRT2 (11749266_a_at) / Fold change /veh PRRT2 (11749266_a_at) / RFU SNX32 (11753110_a_at) / Fold change /veh SNX32 (11753110_a_at) / RFU CDHR5 (11726645_a_at) / Fold change /veh CDHR5 (11726645_a_at) / RFU RCAN1 (11760418_a_at) / Fold change /veh RCAN1 (11760418_a_at) / RFU FAM167A (11723789_a_at) / Fold change /veh FAM167A (11723789_a_at) / RFU FAM26E (11764081_at) / Fold change /veh FAM26E (11764081_at) / RFU ISYNA1 (11749810_s_at) / Fold change /veh ISYNA1 (11749810_s_at) / RFU ACY1 (11761880_at) / Fold change /veh ACY1 (11761880_at) / RFU 11764098_at / Fold change /veh 11764098_at / RFU SAMD14 (11745864_x_at) / Fold change /veh SAMD14 (11745864_x_at) / RFU NPB (11741838_a_at) / Fold change /veh NPB (11741838_a_at) / RFU TMPRSS6 (11731388_a_at) / Fold change /veh TMPRSS6 (11731388_a_at) / RFU KRTAP10-2 (11738614_at) / Fold change /veh KRTAP10-2 (11738614_at) / RFU ARHGAP8 /// PRR5-ARHGAP8 (11727945_x_at) / Fold change /veh ARHGAP8 /// PRR5-ARHGAP8 (11727945_x_at) / RFU KRTAP5-7 /// NADSYN1 (11734609_at) / Fold change /veh KRTAP5-7 /// NADSYN1 (11734609_at) / RFU RASL12 (11751679_a_at) / Fold change /veh RASL12 (11751679_a_at) / RFU CDKN2B (11736163_a_at) / Fold change /veh CDKN2B (11736163_a_at) / RFU PRF1 (11729649_at) / Fold change /veh PRF1 (11729649_at) / RFU, ZNF638 /// ZNF638-IT1 / Fold change vs veh, ZNF638 /// ZNF638-IT1 / RFU, PANK3 / Fold change vs veh, PANK3 / RFU, SH3YL1 / Fold change vs veh, SH3YL1 / RFU, ZEB2 / Fold change vs veh, ZEB2 / RFU, NRIP1 / Fold change vs veh, NRIP1 / RFU, PTTG1IP / Fold change vs veh, PTTG1IP / RFU, CAPN2 / Fold change vs veh, CAPN2 / RFU, MED14 / Fold change vs veh, MED14 / RFU, SNORA58 / Fold change vs veh, SNORA58 / RFU, C1orf63 / Fold change vs veh, C1orf63 / RFU, LRRFIP1 / Fold change vs veh, LRRFIP1 / RFU, NDUFAF7 / Fold change vs veh, NDUFAF7 / RFU, SLC12A2 / Fold change vs veh, SLC12A2 / RFU, IBTK / Fold change vs veh, IBTK / RFU, ESF1 / Fold change vs veh, ESF1 / Fold change vs veh, TMEM50B / RFU, TAOK1 / Fold change vs veh, TAOK1 / RFU, ACBD3 / Fold change vs veh, ACBD3 / RFU, TMA16 / Fold change vs veh, TMA16 / RFU, RWDD3 / Fold change vs veh, RWDD3 / RFU, BCAT1 / Fold change vs veh, BCAT1 / RFU, EDEM3 / Fold change vs veh, EDEM3 / RFU, TMEM33 / Fold change vs veh, TMEM33 / RFU, WDR75 / Fold change vs veh, WDR75 / RFU, AHCTF1 / Fold change vs veh, AHCTF1 / RFU, TFRC / Fold change vs veh, TFRC / RFU, ZDHHC17 / Fold change vs veh, ZDHHC17 / RFU, NOM1 / Fold change vs veh, NOM1 / RFU, ARL8B / Fold change vs veh, ARL8B / RFU, ZBTB11 / Fold change vs veh, ZBTB11 / RFU, TAMM41 / Fold change vs veh, TAMM41 / RFU, KIAA1704 /// LOC100996395 / Fold change vs veh, KIAA1704 /// LOC100996395 / RFU, ING1 / Fold change vs veh, ING1 / RFU, TRMT61B / Fold change vs veh, TRMT61B / RFU, FUBP3 / Fold change vs veh, FUBP3 / RFU, TP53 / Fold change vs veh, TP53 / RFU, TNKS2 / Fold change vs veh, TNKS2 / RFU, ZFP14 / Fold change vs veh, ZFP14 / RFU, ACTR2 / Fold change vs veh, ACTR2 / RFU, PPP3R1 / Fold change vs veh, PPP3R1 / RFU, PIK3R1 / Fold change vs veh, PIK3R1 / RFU, HNRNPA1 / Fold change vs veh, HNRNPA1 / RFU, RNF170 / Fold change vs veh, RNF170 / RFU, ZNF28 / Fold change vs veh, ZNF28 / RFU, RNGTT / Fold change vs veh, RNGTT / RFU, OGT / Fold change vs veh, OGT / RFU, BRD1 / Fold change vs veh, BRD1 / RFU, MARS / Fold change vs veh, MARS / RFU, ZNF655 / Fold change vs veh, ZNF655 / RFU, FAHD1 / Fold change vs veh, FAHD1 / RFU, BDP1 / Fold change vs veh, BDP1 / RFU, LRRCC1 / Fold change vs veh, LRRCC1 / RFU, ARID1A / Fold change vs veh, ARID1A / RFU, ZNF146 / Fold change vs veh, ZNF146 / RFU, ZNF330 / Fold change vs veh, ZNF330 / RFU, GPN3 / Fold change vs veh, GPN3 / RFU, C9orf123 / Fold change vs veh, C9orf123 / RFU, N4BP2L2 / Fold change vs veh, N4BP2L2 / RFU, ARFIP1 / Fold change vs veh, ARFIP1 / RFU, FAM179B / Fold change vs veh, FAM179B / RFU, BCL10 / Fold change vs veh, BCL10 / RFU, UHRF1BP1L / Fold change vs veh, UHRF1BP1L / RFU, BET1 / Fold change vs veh, BET1 / RFU, CNOT2 / Fold change vs veh, CNOT2 / RFU, ZNF268 / Fold change vs veh, ZNF268 / Fold change vs veh, ZNF507 / RFU, DGCR2 / Fold change vs veh, DGCR2 / RFU, WDSUB1 / Fold change vs veh, WDSUB1 / Fold change vs veh, HSP90B1 /// MIR3652 / RFU, ADSS / Fold change vs veh, ADSS / RFU, GK / Fold change vs veh, GK / RFU, ZNF148 / Fold change vs veh, ZNF148 / RFU, TAF9 / Fold change vs veh, TAF9 / RFU, SLC1A5 / Fold change vs veh, SLC1A5 / RFU, SLMO2 / Fold change vs veh, SLMO2 / RFU, ABCC4 / Fold change vs veh, ABCC4 / RFU, LOC101060439 /// RAP1B / Fold change vs veh, LOC101060439 /// RAP1B / RFU, RFX7 / Fold change vs veh, RFX7 / RFU, GTPBP10 / Fold change vs veh, GTPBP10 / RFU, CNEP1R1 / Fold change vs veh, CNEP1R1 / RFU, BIVM-ERCC5 /// ERCC5 / Fold change vs veh, BIVM-ERCC5 /// ERCC5 / RFU, ILF3 / Fold change vs veh, ILF3 / RFU 11762660_at / Fold change /veh 11762660_at / RFU VCAN (11757783_s_at) / Fold change /veh VCAN (11757783_s_at) / RFU DDX43 (11728927_at) / Fold change /veh DDX43 (11728927_at) / RFU KRT8 (11758188_x_at) / Fold change /veh KRT8 (11758188_x_at) / RFU NKD1 (11759106_at) / Fold change /veh NKD1 (11759106_at) / RFU SRD5A1 (11742802_a_at) / Fold change /veh SRD5A1 (11742802_a_at) / RFU TPSAB1 /// TPSB2 (11721975_s_at) / Fold change /veh TPSAB1 /// TPSB2 (11721975_s_at) / RFU GSTM3 (11746129_a_at) / Fold change /veh GSTM3 (11746129_a_at) / RFU IL23R (11737362_x_at) / Fold change /veh IL23R (11737362_x_at) / RFU TMEM51 (11727254_a_at) / Fold change /veh TMEM51 (11727254_a_at) / RFU PIWIL2 (11732686_x_at) / Fold change /veh PIWIL2 (11732686_x_at) / RFU ORM1 (11744905_x_at) / Fold change /veh ORM1 (11744905_x_at) / RFU CCDC152 (11743942_at) / Fold change /veh CCDC152 (11743942_at) / RFU ECM1 (11717891_a_at) / Fold change /veh ECM1 (11717891_a_at) / RFU IL23R (11748794_a_at) / Fold change /veh IL23R (11748794_a_at) / RFU TNFAIP8L3 (11732012_x_at) / Fold change /veh TNFAIP8L3 (11732012_x_at) / RFU MBOAT4 (11741988_at) / Fold change /veh MBOAT4 (11741988_at) / RFU 11764193_at / Fold change /veh 11764193_at / RFU TMEM53 (11763286_at) / Fold change /veh TMEM53 (11763286_at) / RFU MAGEB2 (11727129_at) / Fold change /veh MAGEB2 (11727129_at) / RFU TMEM200A (11744735_a_at) / Fold change /veh TMEM200A (11744735_a_at) / RFU CCDC152 (11751479_a_at) / Fold change /veh CCDC152 (11751479_a_at) / RFU FAM211A (11726209_a_at) / Fold change /veh FAM211A (11726209_a_at) / RFU RGS16 (11746705_a_at) / Fold change /veh RGS16 (11746705_a_at) / RFU VCAN (11755009_s_at) / Fold change /veh VCAN (11755009_s_at) / RFU RHOB (11743442_s_at) / Fold change /veh RHOB (11743442_s_at) / RFU RGS16 (11720943_a_at) / Fold change /veh RGS16 (11720943_a_at) / RFU RGS16 (11720944_at) / Fold change /veh RGS16 (11720944_at) / RFU, VPS4B / Fold change vs veh, VPS4B / RFU, CREB1 / Fold change vs veh, CREB1 / RFU, DNAJC13 / Fold change vs veh, DNAJC13 / RFU, GNAQ / Fold change vs veh, GNAQ / RFU, CDK5R1 / Fold change vs veh, CDK5R1 / RFU, ZRANB3 / Fold change vs veh, ZRANB3 / RFU, CUL4A / Fold change vs veh, CUL4A / RFU, CCNY / Fold change vs veh, CCNY / RFU, UFL1 / Fold change vs veh, UFL1 / RFU, COG3 / Fold change vs veh, COG3 / RFU, DIAPH2 / Fold change vs veh, DIAPH2 / RFU, SKA2 / Fold change vs veh, SKA2 / RFU, AFF3 / Fold change vs veh, AFF3 / RFU, LMF1 / Fold change vs veh, LMF1 / RFU, IPO11 / Fold change vs veh, IPO11 / RFU, DFFB / Fold change vs veh, DFFB / RFU, FOXP1 / Fold change vs veh, FOXP1 / RFU, CARD8 / Fold change vs veh, CARD8 / RFU, STRN3 / Fold change vs veh, STRN3 / RFU, ADK / Fold change vs veh, ADK / RFU, RASSF2 / Fold change vs veh, RASSF2 / RFU, WIPF1 / Fold change vs veh, WIPF1 / RFU, LARP1B / Fold change vs veh, LARP1B / RFU, RASA1 / Fold change vs veh, RASA1 / RFU, RB1 / Fold change vs veh, RB1 / RFU, PPFIA1 / Fold change vs veh, PPFIA1 / RFU, MAT2A / Fold change vs veh, MAT2A / RFU, CCT5 / Fold change vs veh, CCT5 / RFU, WDR92 / Fold change vs veh, WDR92 / RFU, CUX1 / Fold change vs veh, CUX1 / RFU, TTC7A / Fold change vs veh, TTC7A / RFU, TMEM135 / Fold change vs veh, TMEM135 / RFU, DEPTOR / Fold change vs veh, DEPTOR / RFU, CPM / Fold change vs veh, CPM / RFU, DNAJB6 / Fold change vs veh, DNAJB6 / RFU, CACNA2D3 / Fold change vs veh, CACNA2D3 / RFU, DTX4 / Fold change vs veh, DTX4 / RFU, TFCP2 / Fold change vs veh, TFCP2 / RFU, GMCL1 /// GMCL1P1 / Fold change vs veh, GMCL1 /// GMCL1P1 / RFU, AEBP2 / Fold change vs veh, AEBP2 / RFU, SNHG1 /// SNORD22 /// SNORD25 /// SNORD26 /// SNORD27 /// SNORD28 /// SNORD29 /// SNORD31 / Fold change vs veh, SNHG1 /// SNORD22 /// SNORD25 /// SNORD26 /// SNORD27 /// SNORD28 /// SNORD29 /// SNORD31 / Fold change (Aza/veh), C12orf56 (ProbeSet 11735607_a_at) / Fold change (ACY-1035/veh), C12orf56 (ProbeSet 11735607_a_at) / Fold change (Aza/veh), FGFR1OP (ProbeSet 11751329_s_at) / Fold change (ACY-1035/veh), FGFR1OP (ProbeSet 11751329_s_at) / Fold change (Aza/veh), VPS36 (ProbeSet 11739960_a_at) / Fold change (ACY-1035/veh), VPS36 (ProbeSet 11739960_a_at) / RFU SYPL1 (11715823_x_at) / Fold change /veh SYPL1 (11715823_x_at) / RFU IGFBP7 (11715501_s_at) / Fold change /veh IGFBP7 (11715501_s_at) / RFU REEP3 (11722064_at) / Fold change /veh REEP3 (11722064_at) / RFU IGLL1 (11728026_x_at) / Fold change /veh IGLL1 (11728026_x_at): dose or concentration left out as unconfirmed
Settings: ProbeSet 11717702_a_at; LIST D

Compound: Nc1ncn([C@@H]2O[C@H](CO)[C@@H](O)[C@H]2O)c(=O)n1 [azacitidine]
- RFU, RB1: 184.53 RFU
